According to US12129246B1, “Hydroquinazoline derivatives for the treatment of a disease or disorder” (Novartis AG, priority 2023, dated 2024):
Like-named read-outs stand apart in the source and are kept apart here.

How the values were obtained:
monkey NPR1 = monkey NPR1 (Macaca fascicularis, UniProt A0A7N9DBT9); test: Cellular cGMP production assay, monkey NPR1 expressing CHO-K1 cells (CisBio HTRF); assay type: cell-based; conditions: for Monkey NPR1 Amax (% of ANP): maximum cGMP production as percentage of the maximum cGMP produced with ANP
Sequence of monkey NPR1 (A0A7N9DBT9 entry or part of it): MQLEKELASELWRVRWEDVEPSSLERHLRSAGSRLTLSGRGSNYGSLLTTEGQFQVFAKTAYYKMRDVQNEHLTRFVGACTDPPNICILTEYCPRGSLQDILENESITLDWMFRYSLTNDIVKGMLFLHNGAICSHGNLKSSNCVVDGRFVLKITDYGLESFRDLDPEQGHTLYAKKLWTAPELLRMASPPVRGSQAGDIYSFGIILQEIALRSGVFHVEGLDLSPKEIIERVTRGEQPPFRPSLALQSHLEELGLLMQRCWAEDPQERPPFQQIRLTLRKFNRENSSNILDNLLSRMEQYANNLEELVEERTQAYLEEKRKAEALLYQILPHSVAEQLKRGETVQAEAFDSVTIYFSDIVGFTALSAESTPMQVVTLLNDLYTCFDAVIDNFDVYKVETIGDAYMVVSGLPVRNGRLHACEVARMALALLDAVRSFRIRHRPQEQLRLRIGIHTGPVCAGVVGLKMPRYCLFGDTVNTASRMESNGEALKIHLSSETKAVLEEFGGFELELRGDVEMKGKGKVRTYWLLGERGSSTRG
Protocol: Cellular cGMP is a major second messenger that mediates cell activities and is synthesized by activated NPR1 triggered by binding of the natural ligand ANP. […] The assay was performed according to manufacturer's instructions with minor deviations. […] All compound stocks were diluted in PBS+0.1% BSA at 2-fold the final assay concentration. After addition of 10 μL/well of assay buffer (PBS+0.1% BSA+1 mM IBMX) and 10 μL/well of the compounds in different concentrations (12-point dose-response with 3-fold dilutions from a top concentration of 30 μM), the plate was incubated for 30 min at 37° C. to allow for cGMP production. In parallel, a standard curve using a calibrator (contained in the kit) was generated. The cells were lysed and a mix of cGMP-d2 and anti-cGMP-cryptate was added and incubated for 1 h at room temperature. The readout was performed using an Envision plate reader (PerkinElmer) with an excitation wavelength of 317 nm and an emission wavelength of 665 nm. cGMP concentration (Delta F [° %]) was calculated according to the following formulae: […]

human NPR1 = target: T1, human NPR1 (Homo sapiens, UniProt P16066); test: Cellular cGMP production assay, human NPR1 expressing CHO-K1 cells (CisBio HTRF); assay type: cell-based; conditions: for AC50: cGMP production, 30 min at 37° C., 12-point dose-response from 30 μM; for Human NPR1 Amax (% of ANP): maximum cGMP production as percentage of the maximum cGMP produced with ANP
T1 construct: host or cells: CHO-K1
T1 sequence (P16066 33-1061): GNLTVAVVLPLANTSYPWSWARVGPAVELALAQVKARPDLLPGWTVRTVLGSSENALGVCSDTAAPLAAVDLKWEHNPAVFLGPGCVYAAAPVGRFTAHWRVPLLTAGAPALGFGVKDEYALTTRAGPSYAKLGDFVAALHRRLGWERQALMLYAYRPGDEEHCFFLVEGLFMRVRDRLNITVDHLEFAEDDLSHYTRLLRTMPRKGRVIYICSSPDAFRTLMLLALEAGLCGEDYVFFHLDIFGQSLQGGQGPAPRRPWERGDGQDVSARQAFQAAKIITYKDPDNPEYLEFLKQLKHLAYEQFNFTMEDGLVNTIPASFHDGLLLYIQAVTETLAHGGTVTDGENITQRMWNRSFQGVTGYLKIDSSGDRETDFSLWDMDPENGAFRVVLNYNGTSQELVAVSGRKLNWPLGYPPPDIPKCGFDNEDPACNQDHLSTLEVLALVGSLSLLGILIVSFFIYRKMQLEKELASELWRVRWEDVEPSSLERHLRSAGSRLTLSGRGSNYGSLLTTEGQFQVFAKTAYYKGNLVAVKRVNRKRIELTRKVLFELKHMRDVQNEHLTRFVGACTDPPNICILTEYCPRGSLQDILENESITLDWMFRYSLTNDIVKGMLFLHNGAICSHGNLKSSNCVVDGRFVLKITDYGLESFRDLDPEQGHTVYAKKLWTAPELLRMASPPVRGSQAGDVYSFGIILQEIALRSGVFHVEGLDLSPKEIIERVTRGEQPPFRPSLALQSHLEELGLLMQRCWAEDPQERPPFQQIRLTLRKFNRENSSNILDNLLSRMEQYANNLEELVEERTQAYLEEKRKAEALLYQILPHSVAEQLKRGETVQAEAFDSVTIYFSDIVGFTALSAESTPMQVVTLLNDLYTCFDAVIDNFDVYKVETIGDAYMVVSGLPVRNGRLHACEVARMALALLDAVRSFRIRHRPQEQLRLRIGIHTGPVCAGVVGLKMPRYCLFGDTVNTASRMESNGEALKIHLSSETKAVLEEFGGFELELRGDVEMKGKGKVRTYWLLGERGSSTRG
Summary of the method: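 12-pt 3-fold dose-response, top 30 μM; buffer PBS + 0.1% BSA + 1 mM IBMX (PDE inhibitor); 30 min, 37 °C. Lyse, add cGMP-d2 + anti-cGMP-cryptate, 1 h RT. Ex 317 / em 665 nm; Delta F converted to cGMP via calibrator standard curve.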

[1] = cGMP production, monkey NPR1 CHO-K1 cells, 30 min at 37° C., 12-point dose-response from 30 μM, read-out: Monkey NPR1 AC50

Row | Structure (SMILES) | AC50 (monkey NPR1) | Monkey NPR1 Amax (% of ANP) (monkey NPR1; monkey NPR1 CHO-K1 cells) | AC50 (human NPR1) | Human NPR1 Amax (% of ANP) (human NPR1) | AC50 (monkey NPR1; [1])
1 | CC[C@H]([C@H]1CC[C@H](C(=O)O)CC1)N(C)c1nc2c(c(N[C@@H](CN3CCC[C@H](C)C3)c3cnn(C)c3)n1)C[C@H](c1cccc(F)c1)CC2 [Compound 23, (1R,4r)-4-((R)-1-(((R)-6-(3-fluorophenyl)-4-(((R)-1-(1-methyl-1H-pyrazol-4-yl)-2-((S)-3-methylpiperidin-1-yl)ethyl)amino)-5,6,7,8-tetrahydroquinazolin-2-yl)(methyl)amino)propyl)cyclohexane-1-carboxylic acid] | 0.072 µM | 132.182 % of ANP | 0.115 µM | 120.018 % of ANP | 
2 | CC[C@@H](Nc1nc2c(c(N[C@@H](CN3C4CCCC3CC4)c3sc(C)nc3C)n1)C[C@H](c1cccc(F)c1)CC2)[C@H]1CC[C@H](C(=O)O)CC1 [Compound 24, (1R,4r)-4-((1R)-1-(((6R)-4-(((1S)-2-(8-azabicyclo[3.2.1]octan-8-yl)-1-(2,4-dimethylthiazol-5-yl)ethyl)amino)-6-(3-fluorophenyl)-5,6,7,8-tetrahydroquinazolin-2-yl)amino)propyl)cyclohexane-1-carboxylic acid] | 0.102 µM | 128.837 % of ANP | 0.125 µM | 112.884 % of ANP | 
3 | CC[C@@H](N(C)c1nc2c(c(N[C@@H](CN3C4CCCC3CC4)c3cnn(C)c3)n1)C[C@H](c1ccc(F)cc1)CC2)C12CC(C(=O)O)(C1)C2 [Compound 25, 3-((1R)-1-(((6R)-4-(((1R)-2-(8-azabicyclo[3.2.1]octan-8-yl)-1-(1-methyl-1H-pyrazol-4-yl)ethyl)amino)-6-(4-fluorophenyl)-5,6,7,8-tetrahydroquinazolin-2-yl)(methyl)amino)propyl)bicyclo[1.1.1]pentane-1-carboxylic acid] | 0.108 µM | 106.072 % of ANP | 0.126 µM | 102.816 % of ANP | 
4 | CC[C@@H](Nc1nc2c(c(N[C@@H](CN3C4CCCC3CC4)c3scnc3C)n1)C[C@H](c1cccc(F)c1)CC2)[C@H]1CC[C@H](C(=O)O)CC1 [Compound 26, (1R,4r)-4-((1R)-1-(((6R)-4-(((1S)-2-(8-azabicyclo[3.2.1]octan-8-yl)-1-(4-methylthiazol-5-yl)ethyl)amino)-6-(3-fluorophenyl)-5,6,7,8-tetrahydroquinazolin-2-yl)amino)propyl)cyclohexane-1-carboxylic acid] | 0.091 µM | 102.667 % of ANP | 0.131 µM | 115.149 % of ANP | 
5 | CC[C@@H](N(C)c1nc2c(c(N[C@@H](CN3C4CCCC3CCC4)c3cnn(C)c3)n1)C[C@](C)(c1ccccc1)CC2)C12CC(C(=O)O)(C1)C2 [Compound 27, 3-((R)-1-(((R)-4-(((R)-2-((1S,5S)-9-azabicyclo[3.3.1]nonan-9-yl)-1-(1-methyl-1H-pyrazol-4-yl)ethyl)amino)-6-methyl-6-phenyl-5,6,7,8-tetrahydroquinazolin-2-yl)(methyl)amino)propyl)bicyclo[1.1.1]pentane-1-carboxylic acid] | 0.137 µM | 102.654 % of ANP | 0.137 µM | 92.458 % of ANP | 
6 | CC[C@@H](N(C)c1nc2c(c(N[C@@H](CN3C4CCCC3CC4)c3cnn(C)c3)n1)C[C@](C)(c1ccccc1)CC2)C12CC(C(=O)O)(C1)C2 [Compound 28, 3-((1R)-1-(((6R)-4-(((1R)-2-(8-azabicyclo[3.2.1]octan-8-yl)-1-(1-methyl-1H-pyrazol-4-yl)ethyl)amino)-6-methyl-6-phenyl-5,6,7,8-tetrahydroquinazolin-2-yl)(methyl)amino)propyl)bicyclo[1.1.1]pentane-1-carboxylic acid] | 0.134 µM | 105.314 % of ANP | 0.139 µM | 103.247 % of ANP | 
7 | CC[C@H]([C@H]1CC[C@H](C(=O)O)CC1)N(C)c1nc2c(c(N[C@@H](CN3C4CCCC3CCC4)c3cnn(C)c3)n1)C[C@H](c1cccc(F)c1)CC2 [Compound 29, (1R,4r)-4-((R)-1-(((R)-4-(((R)-2-((1S,5S)-9-azabicyclo[3.3.1]nonan-9-yl)-1-(1-methyl-1H-pyrazol-4-yl)ethyl)amino)-6-(3-fluorophenyl)-5,6,7,8-tetrahydroquinazolin-2-yl)(methyl)amino)propyl)cyclohexane-1-carboxylic acid] | 0.137 µM | 128.079 % of ANP | 0.14 µM | 102.911 % of ANP | 
8 | CC[C@@H](Nc1nc2c(c(N[C@@H](CN3CCCCC3)c3cnn(CC)c3)n1)C[C@H](c1cccc(F)c1)CC2)[C@H]1CC[C@H](C(=O)O)CC1 [Compound 30, (1R,4r)-4-((R)-1-(((R)-4-(((R)-1-(1-ethyl-1H-pyrazol-4-yl)-2-(piperidin-1-yl)ethyl)amino)-6-(3-fluorophenyl)-5,6,7,8-tetrahydroquinazolin-2-yl)amino)propyl)cyclohexane-1-carboxylic acid] |  | 99.091 % of ANP | 0.14 µM | 99.863 % of ANP | 0.077 µM
9 | CC[C@H]([C@H]1CC[C@H](C(=O)O)CC1)N(C)c1nc2c(c(N[C@@H](CN3C4CCCC3CC4)c3cnn(C)c3)n1)C[C@H](c1ccc(F)cc1)CC2 [Compound 31, (1R,4r)-4-((1R)-1-(((6R)-4-(((1R)-2-(8-azabicyclo[3.2.1]octan-8-yl)-1-(1-methyl-1H-pyrazol-4-yl)ethyl)amino)-6-(4-fluorophenyl)-5,6,7,8-tetrahydroquinazolin-2-yl)(methyl)amino)propyl)cyclohexane-1-carboxylic acid] | 0.089 µM | 100.914 % of ANP | 0.144 µM | 92.978 % of ANP | 
10 | CC[C@@H](Nc1nc2c(c(N[C@@H](CN3CCC[C@H](C)C3)c3cnn(C)c3)n1)C[C@H](c1ccccc1)CC2)[C@H]1CC[C@H](C(=O)O)CC1 [Compound 32, (1R,4r)-4-((R)-1-(((R)-4-(((R)-1-(1-methyl-1H-pyrazol-4-yl)-2-((S)-3-methylpiperidin-1-yl)ethyl)amino)-6-phenyl-5,6,7,8-tetrahydroquinazolin-2-yl)amino)propyl)cyclohexane-1-carboxylic acid] |  | 92.720 % of ANP | 0.144 µM | 99.842 % of ANP | 0.084 µM
11 | CC[C@H]([C@H]1CC[C@H](C(=O)O)CC1)N(C)c1nc2c(c(N[C@@H](CN3C4CCCC3CC4)c3cnn(C)c3)n1)C[C@H](c1cccc(F)c1)CC2 [Compound 33, (1R,4r)-4-((1R)-1-(((6R)-4-(((1R)-2-(8-azabicyclo[3.2.1]octan-8-yl)-1-(1-methyl-1H-pyrazol-4-yl)ethyl)amino)-6-(3-fluorophenyl)-5,6,7,8-tetrahydroquinazolin-2-yl)(methyl)amino)propyl)cyclohexane-1-carboxylic acid] | 0.104 µM | 106.934 % of ANP | 0.145 µM | 99.163 % of ANP | 
